The experiment concerns facial skin. The experiment can be described thus: Single application of glycerin U.S.P. and other strengths of aqueous glycerin solutions and gels (Example IV). It counts as in vivo, human.

In the case of `OCC(O)CO` [Glycerin U.S.P., glycerin], the feeling on application result (applied to a wetted facial surface) is “better feeling (reduced stickiness)”. In addition, the “shiny, moist, softening and dewy effects” value (single application, one human subject) is listed as “results similar to those described in Example I”.
